Experimental data published in patent publication US8354522B2, “Immunostimulatory oligoribonucleotides” (Coley Pharmaceutical GmbH, priority 2005, dated 2013).

Assays:
[1] = system: isolated monocytes and mDC; experiment: TNF-alpha and IL-12p40 production upon isolated monocytes and mDC stimulation; format: cell-based, human; conditions: 0.5 μM ORN complexed to 10 μg/ml DOTAP, 16 h
Description: FIG. 2 is a set of bar graphs depicting ORN induced cytokine production upon isolated pDC (FIG. 2a), monocytes (FIG. 2b) and mDC (FIG. 2c) stimulation. Cells were stimulated with 0.5 μM ORN complexed to 10 μg/ml DOTAP, 0.5 μM CpG ODN or DOTAP or media alone and IFN-alpha (FIG. 2a), TNF-alpha […] and IL-12p40 (FIG. 2c) were measured.
A similar assay testing different ORN sequences was performed using isolated pDC, monocytes and mDC stimulation. Cells were stimulated with 0.5 μM ORN complexed to 10 μg/ml DOTAP, 0.5 μM CpG ODN or DOTAP or media alone. After 16 h the supernatants were harvested and IFN-alpha, TNF-alpha and IL-12p40 levels were measured by ELISA.

human TLR8 = target: T1, human TLR8 (Homo sapiens, UniProt Q9NR97); experiment: NFκB-luciferase reporter in HEK-293 cells stably transfected with human TLR8; format: cell-based; conditions: HEK-293 with human TLR8, ORN complexed to DOTAP, 16 hours
T1 construct: expressed in transfected cells
T1 sequence (Q9NR97 27-1041): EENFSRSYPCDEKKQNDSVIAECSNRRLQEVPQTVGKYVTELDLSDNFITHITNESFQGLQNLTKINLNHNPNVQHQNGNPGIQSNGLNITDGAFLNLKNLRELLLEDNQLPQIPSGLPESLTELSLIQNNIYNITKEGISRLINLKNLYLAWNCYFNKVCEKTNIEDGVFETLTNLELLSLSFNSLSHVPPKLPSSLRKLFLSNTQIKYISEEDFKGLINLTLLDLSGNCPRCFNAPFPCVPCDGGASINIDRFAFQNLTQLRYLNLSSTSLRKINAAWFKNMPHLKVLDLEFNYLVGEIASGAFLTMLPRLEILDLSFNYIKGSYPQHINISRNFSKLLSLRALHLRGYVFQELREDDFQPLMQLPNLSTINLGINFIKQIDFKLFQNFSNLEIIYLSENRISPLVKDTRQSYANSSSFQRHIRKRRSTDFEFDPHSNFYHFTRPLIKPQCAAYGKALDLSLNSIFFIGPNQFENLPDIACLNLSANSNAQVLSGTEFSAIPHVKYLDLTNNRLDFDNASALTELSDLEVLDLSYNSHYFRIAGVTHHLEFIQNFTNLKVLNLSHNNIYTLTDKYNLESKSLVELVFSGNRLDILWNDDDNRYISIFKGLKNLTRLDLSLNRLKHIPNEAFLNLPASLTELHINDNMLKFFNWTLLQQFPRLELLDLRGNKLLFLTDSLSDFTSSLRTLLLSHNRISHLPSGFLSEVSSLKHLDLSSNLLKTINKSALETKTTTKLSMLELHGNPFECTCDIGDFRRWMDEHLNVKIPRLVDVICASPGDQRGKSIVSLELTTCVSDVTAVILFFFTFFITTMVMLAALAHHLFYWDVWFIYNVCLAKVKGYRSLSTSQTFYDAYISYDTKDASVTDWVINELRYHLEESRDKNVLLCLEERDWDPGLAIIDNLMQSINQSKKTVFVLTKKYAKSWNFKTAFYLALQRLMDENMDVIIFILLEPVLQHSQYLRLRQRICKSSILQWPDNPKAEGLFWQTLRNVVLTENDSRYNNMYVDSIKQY
Description: Stable-transfected HEK-293 cells with NFκB-luciferase read out reporter and human TLR8 were stimulated for 16 hours with indicated ORN. After 16 hours the supernatants were removed, the cells lysed and the luciferase activity or cytokine level was measured. FIGS. 9a and 9b show fold induction of NFκB-luciferase after stimulus.
Unresponsive HEK-293 cells were stably transfected with human TLR3 or TLR8 expression plasmid and NFκB-luciferase reporter gene construct. Cells were incubated with the indicated ORN sequences (10 μM complexed to 50 μg/ml DOTAP) or control stimuli (10 μM R-848, 50 μg/ml polyIC, 3.3 μM ODN 10103 or 50 μg/ml DOTAP) for 16 hours. NFκB-activation was measured by assaying luciferase activity. Results are given as fold induction above background (medium). One representative experiment of 6 independent repetitions is presented (FIG. 9a).
Stable-transfected HEK-293 cells expressing human TLR8 were stimulated with indicated concentrations of ORN complexed to DOTAP (50 μg/ml->1/3 dilution) or DOTAP alone (50 μg/ml->1/3 dilution) for 16 hours. NFκB activation was measured by assaying luciferase activity. Results are given as fold induction above background (medium). […]
Unresponsive HEK-293 cells were stably transfected with human TLR8 expression plasmid and NFκB-luciferase reporter gene construct. […] NFκB-activation was measured by assaying luciferase activity. […]

Bovine PBMC = experiment: Cytokine production by bovine PBMC (48 hours, ELISA); format: cell-based; conditions: 10 μg/ml (H.D.) and 2.5 μg/ml (L.D.)
Description: FIG. 11 is a set of bar graphs showing differences between TLR8 ORN (SEQ ID NO:13) and TLR7/8 ORN (SEQ ID NO:21). SEQ ID NO:5 ORN was used as a control. Bovine PBMC were incubated with either 10 μg/ml ORN (HD) or 2.5 μg/ml ORN (LD) for 48 hours. Supernatants were collected and analyzed by ELISA. FIGS. 11a-c show the level of IL-12, IFN-γ, and TNF-alpha, respectively.
The assay was repeated with a TLR8 ORN (SEQ ID NO:13), a TLR 7/8 ORN (SEQ ID NO:21) and a control ORN (SEQ ID NO:5) (Table 3) at both a high dose (H.D., 10 μg/ml) and a low dose (L.D., 2.5 μg/ml).

Substance | IL-12p40 production (in words) [1] | TNF-alpha production (in words) [1] | human TLR8 signaling (NFκB-luciferase fold induction) (human TLR8) | IFN-γ production (Bovine PBMC) | IL-12 production (Bovine PBMC) | TNF-alpha production (Bovine PBMC)
U*U*G*U*U*G*U*U*G*U*U*G*U*U*G*U*U*G*U*U (UUGUUGUUGUUGUUGUUGUU; listed as RNA, chemistry not fully specified) [SEQ ID NO: 21] | clear TNF-alpha and IL-12p40 production | clear TNF-alpha and IL-12p40 production | Stimulate Specific Human TLR8 Signaling in a Dose Dependent Manner | stimulated production of IFN-γ | significant production of IL-12 and TNF-alpha | significant production of IL-12 and TNF-alpha
U*U*A*U*U*A*U*U*A*U*U*A*U*U*A*U*U*A*U*U (UUAUUAUUAUUAUUAUUAUU; chemistry not fully specified) [SEQ ID NO: 13] | clear TNF-alpha and IL-12p40 production | clear TNF-alpha and IL-12p40 production | Stimulate Specific Human TLR8 Signaling in a Dose Dependent Manner | stimulated production of IFN-γ | – | –
